Measurements: patent US6407248B1, “α-unsaturated amines, their production and use” (Takeda Chemical Industries, Ltd., priority 1987, dated 2002)

tested on: Brown Planthoppers (Nilaparvata lugens); experiment: Effect against brown planthoppers (foliar spray on rice seedlings); assay type: in vivo; conditions: Nilaparvata lugens, foliar, 168 h, read-out: % Mortality after 7 days
Description: Effect Against Brown Planthoppers (Nilaparvata lugens)
An emulsifiable concentrate of the compound of the invention, prepared in the same manner as Example 112 below, was diluted with water to a concentration of 500 ppm and sprayed over the stems and leaves of rice seedlings in the 2-leaf stage at the rate of 10 ml per paper pot. Water was put in test tubes and the treated rice seedlings were placed therein. Then, 10 brown planthopper larvae were released in each tube, which was then capped with an aluminum cap. The test tubes were maintained in an incubator at 25° C. and the dead insects were counted 7 days after release. The % mortality was calculated using the following formula. [formula]

Row | Compound | mortality at 500 µg/mL
1 | CCNC(=C[N+](=O)[O-])N(C)Cc1ccc(Cl)nc1 [Compound 80, 1-[N-(6-Chloro-3-pyridylmethyl)-N-methyl]amino-1-ethylamino-2-nitroethylene] | 100%
2 | CNC(=C[N+](=O)[O-])N(C)Cc1cnc(Cl)s1 [Compound 102, 1-[N-(2-Chloro-5-thiazolylmethyl)-N-methyl]amino-1-methylamino-2-nitroethylene] | 100%
3 | NNC(=C[N+](=O)[O-])NCc1ccc(Cl)nc1 [Compound 51, 1-(6-Chloro-3-pyridylmethyl)amino-1-hydrazino-2-nitroethylene] | 100%
4 | CNC(=C[N+](=O)[O-])NCc1ccc(Cl)nc1Cl [Compound 47, 1-(2,6-Dichloro-3-pyridylmethyl)amino-1-methylamino-2-nitroethylene] | 100%
5 | CC(C)N(Cc1ccc(Cl)nc1)C(N)=C[N+](=O)[O-] [Compound 49, 1-Amino-1-(N-(6-chloro-3-pyridylmethyl)-N-i-propyl]amino-2-nitroethylene] | 100%
6 | CN(Cc1ccc(Br)nc1)C(N)=C[N+](=O)[O-] [Compound 129, 1-Amino-1-[N-(6-bromo-3-pyridylmethyl)-N-methyl]amino-2-nitroethylene] | 100%
7 | CN(C=O)C(=C[N+](=O)[O-])N(C)Cc1cnc(Cl)s1 [Compound 121, 1-[N-(2-Chloro-5-thiazolylmethyl)-N-methyl)amino-1-(N-formyl-N-methyl)amino-2-nitroethylene] | 100%
8 | CCN(Cc1ccc(Cl)nc1)C(N)=C[N+](=O)[O-] [Compound 59, 1-Amino-1-[N-(6-chloro-3-pyridylmethyl)-N-ethyl]-amino-2-nitroethylene] | 100%
9 | CN(C)C(=C[N+](=O)[O-])N(C=O)Cc1ccc(Br)nc1 [Compound 128, 1-[N-(6-Bromo-3-pyridylmethyl)-N-formyl]amino-1-dimethylamino-2-nitroethylene] | 100%
10 | CNC(=C[N+](=O)[O-])N(C)Cc1ccc(F)nc1 [Compound 98] | 100%
11 | CNC(=C[N+](=O)[O-])N(C)Cc1ccc(C)nc1 [Compound 97, 1-Methylamino-1-[N-methyl-N-(6-methyl-3-pyridyl-methyl)]amino-2-nitroethylene] | 100%
12 | CCN(Cc1cnc(Cl)s1)C(=C[N+](=O)[O-])N(C)C=O [Compound 122, 1-[N-(2-Chloro-5-thiazolylmethyl)-N-ethyl) amino-1-(N-formyl-N-methyl)amino-2-nitroethylene] | 100%
13 | CN(C)C(=C[N+](=O)[O-])N(C=O)Cc1cnc(Cl)s1 [Compound 130, 1-[N-(2-Chloro-5-thiazolylmethyl)-N-formyl]amino-1-dimethylamino-2-nitroethylene] | 100%
14 | CNC(=C[N+](=O)[O-])NCc1ccc(Cl)nc1 [Compound 28, 1-(6-Chloro-3-pyridylmethyl)amino-1-methylamino-2-nitroethylene] | 100%
15 | CCN(Cc1ccc(Br)nc1)C(=C[N+](=O)[O-])N(C)C=O [Compound 126, 1-[N-(6-Bromo-3-pyridylmethyl)-N-ethyl]amino-1-(N-formyl-N-methyl)amino-2-nitroethylene] | 100%
16 | CCNC(=C[N+](=O)[O-])NCc1cccnc1 [Compound 4, 1-Ethylamino-1-(3-pyridylmethyl)amino-2-nitroethylene] | 100%
17 | CN(C)C(=C[N+](=O)[O-])NCc1cnc(Cl)s1 [Compound 104, 1-(2-Chloro-5-thiazolylmethyl)amino-1-dimethyl-amino-2-nitroethylene] | 100%
18 | NNC(=C[N+](=O)[O-])NCc1cccnc1 [Compound 18, 1-Hydrazino-1-(3-pyridylmethyl)amino-2-nitroethylene] | 100%
19 | CN(C)C(=C[N+](=O)[O-])NCc1ccc(Cl)nc1 [Compound 46, 1-(6-Chloro-3-pyridylmethyl)amino-1-dimethylamino-2-nitroethylene] | 100%
20 | CN(C)C(=C[N+](=O)[O-])N(C)Cc1ccc(Cl)nc1 [Compound 58, 1-[N-(6-Chloro-3-pyridylmethyl)-N-methyl]amino-1-dimethylamino-2-nitroethylene] | 100%

same assay, conditions: Nilaparvata lugens, foliar, 168 h; emulsifiable concentrate diluted with water to 500 ppm, sprayed on rice seedlings (2-leaf stage), 10 ml per paper pot; 10 larvae per tube; 25° C.; dead insects counted 7 days after release; read-out: % Mortality after 7 days

Row | Compound | mortality at 500 µg/mL
21 | CN(Cc1cccnc1)C(=C[N+](=O)[O-])N(C)Cc1cccnc1 [Compound 57, 1,1-bis(N-methyl-N-3-pyridylmethyl)amino-2-nitroethylene] | 100%
22 | CN(C=O)C(=C[N+](=O)[O-])N(C)c1ccc(Cl)nc1 [Compound 112, 1[N-(6-Chloro-3-pyridyl)-N-methyl]amino-1-(N-formyl-N-methyl)amino-2-nitroethylene] | 100%
23 | CCCNC(=C[N+](=O)[O-])N(C)c1ccc(Cl)nc1 [Compound 95, 1-[N-(6-Chloro-3-pyridyl)-N-methyl]amino-1-n-propyl-amino-2-nitroethylene] | 100%
24 | CNC(=C[N+](=O)[O-])N(C)c1ccc(C)nc1 [Compound 84, 1-Methylamino-1-[N-methyl-N-(6-methyl-3-pyridyl)]-amino-2-nitroethylene] | 100%
25 | CNC(=C[N+](=O)[O-])N(C)Cc1cnccn1 [Compound 73, 1-Methylamino-1-[N-methyl-N-(2-pyrazinyl)methyl]amino-2-nitroethylene] | 100%
26 | CNC(=C[N+](=O)[O-])NCc1ccc(Cl)cc1 [Compound 70, 1-(4-Chlorobenzyl)amino-1-methylamino-2-nitroethylene] | 100%
27 | CNC(=C[N+](=O)[O-])N(C)CCc1cccnc1 [Compound 55, 1-Methylamino-1-[N-methyl-N-[2-(3-pyridyl)ethyl]-amino]-2-nitroethylene] | 100%
28 | CNC(=C[N+](=O)[O-])N(C)c1cccnc1 [Compound 79, 1-Methylamino-1-[N-methyl-N-(3-pyridyl)]amino-2-nitroethylene] | 100%
29 | CNC(=C[N+](=O)[O-])N(C)c1ccc(OC)nc1 [Compound 108, 1-[N-(6-Methoxy-3-pyridyl)-N-methyl]amino-1-1-methyl-amino-2-nitroethylene] | 100%
30 | CN(C=O)C(=C[N+](=O)[O-])N(C)Cc1cccnc1 [Compound 65, 1-(N-Formyl-N-methyl)amino-1-[N-methyl-N-(3-pyridyl-methyl)]amino-2-nitroethylene] | 100%
31 | CCN(C(=C[N+](=O)[O-])NC)c1ccc(Cl)nc1 [Compound 90, 1-[N-(6-Chloro-3-pyridyl)-N-ethyl]amino-1-methyl-amino-2-nitroethylene] | 100%
32 | CCCN(C(=C[N+](=O)[O-])NC)c1ccc(Cl)nc1 [Compound 91, 1-[N-(6-Chloro-3-pyridyl)-N-n-propyl]amino-1-methyl-amino-2-nitroethylene] | 100%
33 | CN(C)C(=C[N+](=O)[O-])N(C=O)Cc1cccnc1 [Compound 72, 1-Dimethylamino-1-[N-formyl-N-(3-pyridylmethyl)]-amino-2-nitroethylene] | 100%
34 | CCOC(=O)C(=C(NC)N(C)c1ccc(Cl)nc1)[N+](=O)[O-] [Compound 109, 1-[N-(6-Chloro-3-pyridyl)-N-methyl]amino-1-methylamino-2-ethoxycarbonyl-2-nitroethylene] | 100%
35 | CNC(=C[N+](=O)[O-])N(C)Cc1ccc(Cl)cc1 [Compound 68, 1-[N-(4-Chlorobenzyl)-N-methyl]amino-1-methylamino-2-nitroethylene] | 100%
36 | CNC(=C[N+](=O)[O-])N(C)Cc1ccc(OC)nc1 [Compound 61, 1-[N-(6-Methoxy-3-pyridylmethyl)-N-methyl]amino-1-methylamino-2-nitroethylene] | 100%
37 | CN(C)C(=C[N+](=O)[O-])Nc1ccc(Cl)nc1 [Compound 107, 1-(6-Chloro-3-pyridyl)amino-1-dimethylamino-2-nitrothylene] | 100%
38 | CN(C)CCNC(=C[N+](=O)[O-])NCc1cccnc1 [Compound 12, 1-(2-Dimethylaminoethyl)amino-1-(3-pyridylmethyl)amino-2-nitroethylene] | 100%

same assay, conditions: emulsifiable concentrate diluted with water to 500 ppm, sprayed on rice seedlings (2-leaf stage), 10 ml per paper pot; 10 larvae per tube; 25° C.; dead insects counted 7 days after release

Row | Compound | % Mortality after 7 days
39 | CCNC(=C[N+](=O)[O-])N(C)Cc1cccnc1 [Compound 33, 1-Ethylamino-1-[N-methyl-N-(3-pyridylmethy)]amino-2-nitroethylene] | 100%
40 | CCCN(Cc1cccnc1)C(=C[N+](=O)[O-])NC [Compound 42, 1-Methylamino-1-[N-(n-propyl)-N-(3-pyridylmethyl)]amino-2-nitroethylene] | 100%
41 | CCN(Cc1cccnc1)C(=C[N+](=O)[O-])NC [Compound 31, 1-[N-Ethyl-N-(3-pyridylmethyl)]amino-1-methylamino-2-nitroethylene] | 100%
42 | CNC(=C[N+](=O)[O-])N(C)Cc1cccnc1 [Compound 26, 1-Methylamino-1-(N-methyl-N-3-pyridylmethyl)amino-2-nitroethylene] | 100%
43 | CN(C)NC(=C[N+](=O)[O-])NCc1cccnc1 [Compound 24, 1-(2,2-Dimethyl-1-hydrazino)-1-(3-pyridylmethyl)amino-2-nitroethylene] | 100%
44 | CCN(Cc1ccc(Cl)nc1)C(=C[N+](=O)[O-])NC [Compound 60, 1-[N-(6-Chloro-3-pyridylmethyl)-N-ethyl]amino-1-methylamino-2-nitroethylene] | 100%
